#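 48-hour exposure; five concentrations; linearly interpolated endpoints. GI50 marks 50% less growth. Definition used: TGI = concentration required for complete inhibition of growth.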 Where a SMILES comes first, the peptide text is derived from it. The star is where a group is joined. Boc = CC(C)(C)OC(=O)*
# Tests used:
# Assay in all cases: NCI tumour cell line growth inhibition, 48 h
# COLO 205 colon = tested on: COLO 205 colon
# IGROV1 ovarian = tested on: IGROV1 ovarian
# MALME-3M melanoma = tested on: MALME-3M melanoma
# MDA-MB-231 breast = tested on: MDA-MB-231 breast
# SK-MEL-2 melanoma = tested on: SK-MEL-2 melanoma
# SK-MEL-28 melanoma = tested on: SK-MEL-28 melanoma
# SK-OV-3 ovarian = tested on: SK-OV-3 ovarian
# SR leukemia = tested on: SR leukemia
# U251 CNS = tested on: U251 CNS
# MCF7 breast = tested on: MCF7 breast
SMILES,TGI (COLO 205 colon) [µM],TGI (IGROV1 ovarian) [µM],TGI (MALME-3M melanoma) [µM],TGI (MDA-MB-231 breast) [µM],TGI (SK-MEL-2 melanoma) [µM],TGI (SK-MEL-28 melanoma) [µM],TGI (SK-OV-3 ovarian) [µM],TGI (SR leukemia) [µM],TGI (U251 CNS) [µM],TGI (MCF7 breast) [µM],GI50 (COLO 205 colon) [µM],GI50 (IGROV1 ovarian) [µM],GI50 (MALME-3M melanoma) [µM],GI50 (MCF7 breast) [µM],GI50 (SK-MEL-2 melanoma) [µM],GI50 (SK-MEL-28 melanoma) [µM],GI50 (SK-OV-3 ovarian) [µM],GI50 (SR leukemia) [µM],GI50 (U251 CNS) [µM]
CCN(CC)CCSc1nc2c(c(=N)n1-c1ccccc1)c(=S)n(-c1ccccc1)c(=S)n2-c1ccccc1,3.51,3.24,3.18,3.73,20.4,16.5,15.5,0.936,6.4,–,–,–,–,–,–,–,–,–,–
CC(C)CC1[C@@H](OCc2ccccc2)COS(=O)(=O)N1Cc1ccccc1 (some centres undefined),> 100,> 100,> 100,> 100,> 100,> 100,> 100,–,> 100,> 100,–,–,–,–,–,–,–,–,–
COc1ccc(CCCC(=O)O)c(C)c1,–,> 100,> 100,> 100,> 100,> 100,–,> 100,60.8,–,–,–,–,–,–,–,–,–,–
CC(NC(=O)C(N)CC(=O)O)NC(=O)N1CCOCC1 (centres undefined),> 100,> 100,> 100,> 100,> 100,> 100,> 100,–,> 100,> 100,–,–,–,–,–,–,–,–,–
COc1ccc(Nc2nc(N)c(C(=O)c3ccccc3)s2)cc1,0.333,37,> 100,–,32.2,> 100,> 100,14.5,> 100,> 100,–,–,–,–,–,–,–,–,–
O[C@H]1[C@H](O)[C@H](O)CN2CCC[C@@H](O)[C@H]12,> 100,> 100,–,> 100,> 100,> 100,> 100,> 100,> 100,> 100,–,–,–,–,–,–,–,–,–
COc1ccc(Cl)cc1NC(=O)c1c(NC(=O)C(F)(F)C(F)(F)F)sc2c1CCCCC2,2.8,> 100,5.63,–,5.71,> 100,6.89,> 100,> 100,8.68,1.3,2.81,1.58,1.68,1.07,1.9,2.18,1.23,1.89
Cn1c2ccccc2n2c(=O)c3cccnc3c(C#N)c12,> 100,–,> 100,> 100,–,> 100,> 100,–,> 100,–,–,–,–,–,–,–,–,–,–
COc1ccc(C2SCC(=O)N2NC(=O)C(C)Oc2ccccc2Cl)cc1 (centres undefined),64.4,> 100,–,> 100,50,> 100,–,58.1,> 100,> 100,–,–,–,–,–,–,–,–,–
C=Cc1cc2c(cc1O)CC[C@@H]1[C@@H]2CC[C@]2(C)[C@@H](O)CC[C@@H]12,30.1,19.3,10.4,18.7,21.1,16.7,28.3,8.4,15.1,–,–,–,–,–,–,–,–,–,–
CCOCC(NC(=O)C(CC(C)C)NC(=O)OC(C)(C)C)C(N)=O (stereo not drawn) (Boc-Leu-Ser(Et)-NH2; configuration not given here),> 100,> 100,> 100,> 100,> 100,2.84,> 100,–,2.79,> 100,–,–,–,–,–,–,–,–,–
O=c1c(-c2ccccc2Cl)coc2cc(F)ccc12,> 100,51.5,–,67.3,> 100,> 100,> 100,–,35.3,> 100,–,–,–,–,–,–,–,–,–
Cc1ccc2cccc3c2c1CC1(C3=O)S(=O)(=O)OCCOS1(=O)=O,> 100,> 100,> 100,> 100,> 100,> 100,> 100,–,> 100,> 100,–,–,–,–,–,–,–,–,–
CC1C(c2ccc3c(c2)OCO3)c2cc3c(cc2OC1N1CCCCC1)OCO3 (centres undefined),> 100,> 100,–,–,> 100,> 100,–,> 100,–,> 100,–,–,–,–,–,–,–,–,–
O=c1c(O)c(-c2cc(O)c(O)cc2O)oc2cc(O)c(C3OC(CO)C(O)C(O)C3O)c(O)c12 (centres undefined),–,> 100,–,> 100,> 100,> 100,> 100,> 100,> 100,> 100,–,–,–,–,–,–,–,–,–
COc1cc2cc(C(=O)N3CC(CCl)c4c3cc(N(C)C)c3ccccc43)[nH]c2c(OC)c1OC (centres undefined),–,–,0.0976,> 100,< 0.01,–,0.0395,< 0.01,4.66,–,–,–,–,–,–,–,–,–,–
Clc1ccc2c(NCCNc3ccnc4cc(Cl)ccc34)ccnc2c1,30.1,36.6,> 100,32.2,34.4,32.5,31.5,–,32.1,36,–,–,–,–,–,–,–,–,–
Fc1cc(-c2ncc(Cl)cc2Cl)c2cccccc1-2,> 100,> 100,> 100,> 100,–,–,> 100,–,–,> 100,–,–,–,–,–,–,–,–,–

# Source: PubChem BioAssay (NCI)
